For 22 molecules, EC50 results are on record in patent US10106553B2, “Substituted benzothiophenyl derivatives as GPR40 agonists for the treatment of type II diabetes” (Janssen Pharmaceutica NV, priority 2016, dated 2018).

This assay deals with human GPR40 (Homo sapiens (Human), UniProt O14842). As to the kind of experiment: GPR40 Calcium Flux Assay.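 Note: calcium flux followed with the Fluo-8 fluorescent dye, intensity read each second over 8 min as compounds were added to the cells.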 Conditions: transfected HEK293 cells stably expressing human GPR40; Ca2+ mobilization; mean data; read-out: hGPR40 Ca^2+ Assay EC50. The class given is cell-based. Background: Calcium assays in cells follow changes in intracellular calcium, usually with a dye or a luminescent sensor.
Chain of human GPR40 (O14842 whole entry): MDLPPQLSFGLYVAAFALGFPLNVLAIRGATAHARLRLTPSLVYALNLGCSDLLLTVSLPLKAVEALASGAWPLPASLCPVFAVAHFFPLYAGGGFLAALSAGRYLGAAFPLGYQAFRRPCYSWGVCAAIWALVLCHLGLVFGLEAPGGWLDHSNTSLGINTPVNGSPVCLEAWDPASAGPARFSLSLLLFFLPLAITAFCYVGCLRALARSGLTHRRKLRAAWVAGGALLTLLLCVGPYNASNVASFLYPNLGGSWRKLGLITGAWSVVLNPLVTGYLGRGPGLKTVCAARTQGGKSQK
Consider `CC#C[C@@H](Cc1nnn[nH]1)c1ccc(OCc2ccc3scc(-c4ccccc4Br)c3c2)cc1` [Cpd 4, (2S)-5-(2-(4-((3-(2-Bromophenyl)benzo[b]thiophen-5-yl)methoxy)phenyl)pent-3-yn-1-yl)-1H-tetrazole], for which the EC50 was 20 nM.

For `CC#C[C@@H](Cc1nnn[nH]1)c1ccc(OCc2ccc3scc(-c4cc(Cl)ncc4C)c3c2)cc1` [Cpd 5, (2S)-4-(5-((4-(1-(1H-Tetrazol-5-yl)pent-3-yn-2-yl)phenoxy)methyl)benzo[b]thiophen-3-yl)-2-chloro-5-methylpyridine], the 50% effective concentration (EC50) amounted to 65 nM.

As for `CC#C[C@@H](Cc1nnn[nH]1)c1ccc(OCc2ccc3scc(-c4ccc(OCC5(O)CCS(=O)(=O)CC5)cc4C)c3c2)cc1` [Cpd 6, (2S)-4-((4-(5-((4-(1-(1H-Tetrazol-5-yl)pent-3-yn-2-yl)phenoxy)methyl)benzo[b]thiophen-3-yl)-3-methylphenoxy)methyl)-4-hydroxytetrahydro-2H-thiopyran 1,1-dioxide], the EC50 is 190 nM.

Turning to `CC#C[C@@H](Cc1nnn[nH]1)c1ccc(OCc2ccc3scc(-c4ccc(OC5CCOCC5)cc4C)c3c2)cc1` [Cpd 9, (2S)-5-(2-(4-((3-(2-Methyl-4-((tetrahydro-2H-pyran-4-yl)oxy)phenyl)benzo[b]thiophen-5-yl)methoxy)phenyl)pent-3-yn-1-yl)-1H-tetrazole], the EC50 was 270 nM.

As for `CC#C[C@@H](Cc1nnn[nH]1)c1ccc(OCc2ccc3scc(-c4ccc(S(C)(=O)=O)cc4C)c3c2)cc1` [Cpd 14, (2S)-5-(2-(4-((3-(2-Methyl-4-(methylsulfonyl)phenyl)benzo[b]thiophen-5-yl)methoxy)phenyl)pent-3-yn-1-yl)-1H-tetrazole], the EC50 is 130 nM.

Take `CC#C[C@@H](Cc1nnn[nH]1)c1ccc(OCc2ccc3scc(-c4ccc(C5CCS(=O)(=O)CC5)cc4C)c3c2)cc1` [Cpd 17, (2S)-4-(4-(5-((4-(1-(1H-Tetrazol-5-yl)pent-3-yn-2-yl)phenoxy)methyl)benzo[b]thiophen-3-yl)-3-methylphenyl)tetrahydro-2H-thiopyran 1,1-dioxide]: the EC50 was 97 nM.

`CC#C[C@@H](Cc1nnn[nH]1)c1ccc(OCc2ccc3sc(C)c(-c4ccc(OC5CCS(=O)(=O)CC5)cc4C)c3c2)cc1` [Cpd 18, 4-(4-(5-((4-((2S)-1-(1H-Tetrazol-5-yl)pent-3-yn-2-yl)phenoxy)methyl)-2-methylbenzo[b]thiophen-3-yl)-3-methylphenoxy)tetrahydro-2H-thiopyran 1,1-dioxide]: the EC50 stood at 80 nM.

Consider `CC#C[C@@H](Cc1nnn[nH]1)c1ccc(OCc2ccc3scc(-c4c(C)cccc4C)c3c2)cc1` [Cpd 20, (2S)-5-(2-(4-((3-(2,6-Dimethylphenyl)benzo[b]thiophen-5-yl)methoxy)phenyl)pent-3-yn-1-yl)-1H-tetrazole], for which the EC50 worked out at 24 nM.

For the molecule `CC#C[C@@H](Cc1nnn[nH]1)c1ccc(OCc2ccc3scc(-c4cnc(OCCOC)cc4C)c3c2)cc1` [Cpd 21, (2S)-5-(5-((4-(1-(1H-Tetrazol-5-yl)pent-3-yn-2-yl)phenoxy)methyl)benzo[b]thiophen-3-yl)-2-(2-methoxyethoxy)-4-methylpyridine], the EC50 was 51 nM.

Take `CC#C[C@@H](Cc1nnn[nH]1)c1ccc(OCc2ccc3scc(-c4ncnn4C)c3c2)cc1` [Cpd 23, (2S)-5-(2-(4-((3-(1-Methyl-1H-1,2,4-triazol-5-yl)benzo[b]thiophen-5-yl)methoxy)phenyl)pent-3-yn-1-yl)-1H-tetrazole]: the EC50 amounted to 1740 nM.

Consider `CC#C[C@@H](Cc1nnn[nH]1)c1ccc(OCc2ccc3scc(-c4nccnc4C)c3c2)cc1` [Cpd 24, (2S)-2-(5-((4-(1-(1H-Tetrazol-5-yl)pent-3-yn-2-yl)phenoxy)methyl)benzo[b]thiophen-3-yl)-3-methylpyrazine], for which the EC50 is 550 nM.

`CC#C[C@@H](Cc1nnn[nH]1)c1ccc(OCc2ccc3scc(-c4ncc(OCCOC)cc4C)c3c2)cc1` [Cpd 26, (2S)-2-(5-((4-(1-(1H-Tetrazol-5-yl)pent-3-yn-2-yl)phenoxy)methyl)benzo[b]thiophen-3-yl)-5-(2-methoxyethoxy)-3-methylpyridine]: the EC50 was 34 nM.

As to `CC#C[C@@H](Cc1nnn[nH]1)c1ccc(OCc2ccc3scc(-c4cccc5c4OCCO5)c3c2)cc1` [Cpd 27, (2S)-5-(2-(4-((3-(2,3-Dihydrobenzo[b][1,4]dioxin-5-yl)benzo[b]thiophen-5-yl)methoxy)phenyl)pent-3-yn-1-yl)-1H-tetrazole], the EC50 is 61 nM.

Regarding `CC#C[C@@H](Cc1nnn[nH]1)c1ccc(OCc2ccc3scc(-c4cccc5c4CCN5C(=O)CC)c3c2)cc1` [Cpd 28, (2S)-1-(4-(5-((4-(1-(1H-tetrazol-5-yl)pent-3-yn-2-yl)phenoxy)methyl)benzo[b]thiophen-3-yl)indolin-1-yl)propan-1-one], the EC50 was 27 nM.

As to `CC#C[C@@H](Cc1nnn[nH]1)c1ccc(OCc2ccc3scc(-c4cc(NS(C)(=O)=O)ccc4C)c3c2)cc1` [Cpd 29, (2S)—N-(3-(5-((4-(1-(1H-tetrazol-5-yl)pent-3-yn-2-yl)phenoxy)methyl)benzo[b]thiophen-3-yl)-4-methylphenyl)methanesulfonamide], the EC50 is 420 nM.

For `CC#C[C@@H](Cc1nnn[nH]1)c1ccc(OCc2ccc3scc(-c4cccc5c4CCC(C)(C)O5)c3c2)cc1` [Cpd 30, (2S)-5-(2-(4-((3-(2,2-Dimethylchroman-5-yl)benzo[b]thiophen-5-yl)methoxy)phenyl)pent-3-yn-1-yl)-1H-tetrazole], the EC50 turned out to be 430 nM.

As to `CC#C[C@@H](Cc1nnn[nH]1)c1ccc(OCc2ccc3scc(-c4ccccc4Cl)c3c2)cc1` [Cpd 32, (2S)-5-(2-(4-((3-(2-Chlorophenyl)benzo[b]thiophen-5-yl)methoxy)phenyl)pent-3-yn-1-yl)-1H-tetrazole], the EC50 is 11 nM.

Take `CC#C[C@@H](Cc1nnn[nH]1)c1ccc(OCc2ccc3scc(-c4cc(OCCOC)cnc4C)c3c2)cc1` [Cpd 33, (2S)-3-(5-((4-(1-(1H-Tetrazol-5-yl)pent-3-yn-2-yl)phenoxy)methyl)benzo[b]thiophen-3-yl)-5-(2-methoxyethoxy)-2-methylpyridine]: the EC50 amounted to 8 nM.

For `CC#C[C@@H](Cc1nnn[nH]1)c1ccc(OCc2ccc3sc(C(F)(F)F)c(C4CC4)c3c2)cc1` [Cpd 37, (2S)-5-(2-(4-((3-Cyclopropyl-2-(trifluoromethyl)benzo[b]thiophen-5-yl)methoxy)phenyl)pent-3-yn-1-yl)-1H-tetrazole], the EC50 stood at 590 nM.

With `CC#C[C@@H](Cc1nnn[nH]1)c1ccc(OCc2ccc3scc(-c4ccccc4C)c3c2)nc1` [Cpd 40, (2R)-5-(1-(1H-Tetrazol-5-yl)pent-3-yn-2-yl)-2-((3-(2-methylphenyl)benzo[b]thiophen-5-yl)methoxy)pyridine], the EC50 was 58 nM.

For the molecule `CC#C[C@@H](Cc1nnn[nH]1)c1ccc(OCc2ccc3scc(-c4ccc(OCCOC)cc4C)c3c2)nc1` [Cpd 41, (2R)-5-(1-(1H-Tetrazol-5-yl)pent-3-yn-2-yl)-2-((3-(4-(2-methoxyethoxy)-2-methylphenyl)benzo[b]thiophen-5-yl)methoxy)pyridine], the EC50 was 19 nM.

With `CC#C[C@@H](Cc1nnn[nH]1)c1ccc(OCc2ccc3scc(-c4cccc(OCCOC)c4C)c3c2)nc1` [Cpd 42, (2R)-5-(1-(1H-Tetrazol-5-yl)pent-3-yn-2-yl)-2-((3-(3-(2-methoxyethoxy)-2-methylphenyl)benzo[b]thiophen-5-yl)methoxy)pyridine], the EC50 turned out to be 120 nM.

In general, EC50 refers to the concentration giving half of the maximal effect.
